The subject of assay [1] is MPTP-treated C57 black mice. Nature of the assay: MPTP-induced striatal dopamine depletion (HPLC-EC). Type of assay: in vivo. As for the experimental part: Six to 8-week-old […] mice weighing 30 g were housed in standard conditions: constant temperature (22±1° C.), humidity (relative, 30%) and a 12-h light/dark cycle, and were allowed free access to food and water. The animals and protocol procedures were approved and supervised by the Committee on Animal Care (COAC) at the Iowa State University. Rottlerin was dissolved in 1% dimethyl sulfoxide (DMSO) and was administered intraperitoneally at various doses. An equal volume of DMSO was given to controls. Rottlerin and DMSO administrations were started 24 h before the injections of the MPTP and continued for 5 days in the MPTP model. In the chronic regimens of MPTP administration, MPTP in phosphate-buffered saline (PBS) was injected intraperitoneally at doses of 30 mg/kg, once a day. Mice were sacrificed 2 days after the MPTP injections, and the striata were dissected for catecholamine analysis. Additionally, rottlerin alone (0.3-20 mg/kg) was administered via intraperitoneally or orally and then brain tissues were subjected to neurochemical analyses (FIG. 8). The mesencephalons were fixed in 4% paraformaldehyde for 5 days for tyrosine hydroxylase (TH) immunostaining.
DA and DOPAC levels in brain striatal tissues were determined by high-performance liquid chromatography with electrochemical detection (HPLC-EC); samples were prepared as described previously (Kitazawa, Anantharam et al. 2001). Briefly, neurotransmitters were extracted from samples using 0.1M perchloric acid containing 0.05% Na2EDTA and 0.1% Na2S2O5. The extracts were filtered in 0.22 micron spin tubes and 20 μl of the samples was loaded for analysis. DA and DOPAC were separated isocratically by a reversed-phase column with a flow rate of 0.7 ml/min. An HPLC system (ESA Inc., Bedford, Mass.) with an ESA automatic sampler (model 542) was used for these experiments. The electrochemical detection (EC) system consisted of an ESA coulochem model 5100A with a microanalysis cell model 5014A and a guard cell model 5020 (ESA Inc., Bedford, Mass.). The DA and DOPAC levels were measured as pg/mg protein and expressed as percent of control.

Assay [2] concerns tyrosine hydroxylase (TH). Kind of assay: TH phosphorylation in N27 cells (Western blot, immunofluorescence). Type of assay: cell-based, rat. The note with it: N27 cells. The procedure: (§1) PC12 cells, differentiated N27 dopaminergic cells and primary mesencephalic neurons were exposed to 1-10 μM rottlerin for the duration of the experiment. DMSO (0.01%) was used as vehicle control. PKCδ-DN- and Lac Z-expressing N27 cells were only treated with 0.01% DMSO. […] Untreated or vehicle treated cells were used as control samples.
(§2) Cell and brain lysates containing equal amounts of protein were loaded in each lane and separated on a 10-12% SDS-PAGE gel as described previously (Kaul et al., 2003). After the separation, proteins were transferred to nitrocellulose membrane, and nonspecific binding sites were blocked by treating with 5% nonfat dry milk powder. The membranes were then treated with primary antibodies directed against PKCδ (rabbit polyclonal or mouse monoclonal, 1:2000 dilution), TH (rabbit polyclonal or mouse monoclonal, 1:1000), phospho TH-ser40 (rabbit polyclonal, 1:1000), phospho TH-ser31 TH (rabbit polyclonal, 1:1000), or PP2A (mouse monoclonal, 1:1000). The primary antibody treatments were followed by treatment with secondary HRP-conjugated anti-rabbit or anti-mouse IgG (1:2000) for 1 hr at RT. Secondary antibody-bound proteins were detected using Amersham's ECL chemiluminescence kit. To confirm equal protein loading, blots were reprobed with a β-actin antibody (1:5000 dilution). Western blot images were captured with a Kodak 2000 MM imaging system and data were analyzed using 1D Kodak imaging analysis software.
(§3) Immunostaining of PKCδ, TH, Ser40 P-TH and Ser31 P-TH was performed in PC12, N27 and primary mesencephalic neurons. Cells were grown on poly-L-Lysine-coated glass cover slips. After treatment, the cells were fixed with 4% paraformaldehyde and processed for immunohistochemical staining. First, non-specific sites were blocked with 5% normal goat serum containing 0.4% BSA and 0.2% Triton-X 100 in PBS for 20 min. Cells were then incubated with antibodies directed against PKCδ (1:500 dilution), TH (1:500 dilution), and P-THSer40 (1:500 dilution) overnight at 4° C. followed by incubation with either Alexa 488-conjugated (green, 1:1000) or Cy3-conjugated (red, 1:1000) secondary antibody for 1 hr at RT. Secondary antibody treatments were followed by incubation with Hoechst 33342 (10 μg/ml) for 3 min at room temperature to stain the nucleus. Then the coverslips containing stained cells were washed with PBS, mounted on a slide, and viewed under a Nikon inverted fluorescence microscope (Model TE-2000U); images were captured with a SPOT digital camera (Diagnostic Instruments, Sterling Heights, Mich.).

Assay [3] deals with tyrosine hydroxylase (TH). Nature of the assay: TH phosphorylation in PC12 cells (immunoblot, immunofluorescence). Type of assay: cell-based. As to conditions: 3 μM rottlerin for 3 hr. As for the experimental part: as §1, §2, §3
(In western blotting, separated proteins are transferred to a membrane and probed.)

On to `CC(=O)c1c(O)c(C)c(O)c(Cc2c(O)c3c(c(C(=O)/C=C/c4ccccc4)c2O)OC(C)(C)C=C3)c1O` [rottlerin], for which the “protection against dopamine loss induced by MPTP toxicity in striatum” value in assay [1] (20 mg/kg rottlerin) came to 50%. The “MPTP-induced decrease in dopamine and metabolite levels” value in assay [1] (oral 20 mg/kg and i.p. 3, 7 and 10 mg/kg rottlerin, dose-dependent) was “significantly antagonized”. Further, the “dopamine level in striatum” value in assay [1] (rottlerin 20 mg/kg + MPTP 30 mg/kg for 5 days) is recorded as 112.8±25.32 pg/mg tissue weight. Besides, in assay [2], the “level of total TH” value was “unaltered”. In addition, in assay [3], the “TH-ser40 phosphorylation, densitometry of 60 kDa band, increase versus vehicle” value was 3 fold; the THser31 phosphorylation level result is reported as “unaltered”; the “level of total TH” value was “unaltered”. In addition, the “increase in TH-ser40 stained cells compared to DMSO-treated cells” value in assay [3] (immunofluorescence cell count) is recorded as 333%.

For the origin of these results see patent publication US8653023B1, “Dual beneficial effect of dopamine enhancing and neuroprotective actions of PKC delta inhibitors for treatment of Parkinson's disease” (Iowa State University Research Foundation, Inc., priority 2006, dated 2014).
